The target in one assay is T1, Interstitial collagenase (Homo sapiens, UniProt P03956).
T1 sequence (P03956 whole entry): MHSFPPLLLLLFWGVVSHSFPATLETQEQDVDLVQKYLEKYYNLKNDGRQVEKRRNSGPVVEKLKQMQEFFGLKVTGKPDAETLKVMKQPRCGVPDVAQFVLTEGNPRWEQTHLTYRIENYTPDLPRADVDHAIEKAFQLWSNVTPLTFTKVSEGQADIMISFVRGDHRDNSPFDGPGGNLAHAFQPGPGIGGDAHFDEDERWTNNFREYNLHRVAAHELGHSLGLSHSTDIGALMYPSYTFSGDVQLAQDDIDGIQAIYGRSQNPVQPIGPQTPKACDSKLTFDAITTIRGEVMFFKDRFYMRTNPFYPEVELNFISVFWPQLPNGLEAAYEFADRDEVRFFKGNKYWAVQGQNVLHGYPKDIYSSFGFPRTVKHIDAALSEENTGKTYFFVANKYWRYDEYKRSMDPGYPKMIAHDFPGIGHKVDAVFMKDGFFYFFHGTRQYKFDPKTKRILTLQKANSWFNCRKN

Another assay deals with Stromelysin-1 (Homo sapiens, UniProt P08254).
Chain of Stromelysin-1 (P08254 whole entry): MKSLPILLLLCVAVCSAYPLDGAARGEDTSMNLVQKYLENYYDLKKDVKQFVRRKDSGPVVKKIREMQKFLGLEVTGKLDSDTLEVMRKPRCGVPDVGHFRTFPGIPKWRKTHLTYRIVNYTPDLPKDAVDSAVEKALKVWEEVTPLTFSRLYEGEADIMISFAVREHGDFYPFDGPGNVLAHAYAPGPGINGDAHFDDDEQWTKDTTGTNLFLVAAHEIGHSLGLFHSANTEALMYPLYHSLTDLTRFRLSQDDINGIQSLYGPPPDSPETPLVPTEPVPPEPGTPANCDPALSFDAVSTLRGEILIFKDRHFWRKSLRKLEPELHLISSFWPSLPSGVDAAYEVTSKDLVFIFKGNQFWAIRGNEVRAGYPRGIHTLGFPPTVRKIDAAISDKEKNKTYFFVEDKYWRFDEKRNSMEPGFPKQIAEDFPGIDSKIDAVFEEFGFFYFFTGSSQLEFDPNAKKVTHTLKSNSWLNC

Consider 44 molecules from ChEMBL document CHEMBL1132172, “Synthesis of a series of stromelysin-selective thiadiazole urea matrix metalloproteinase inhibitors” (J Med Chem, 1999).

Description for Interstitial collagenase: Binding affinity for matrix metalloprotease-1
Description for Stromelysin-1: Inhibitory concentration against Matrix metalloprotease-3

In turn, `CNC(=O)[C@H](Cc1ccccc1)NC(=O)Nc1nnc(S)s1` yielded a Ki on Interstitial collagenase of 31 µM.
In the case of `CNC(=O)[C@H](CC(C)C)NC(=O)Nc1nnc(S)s1`, on Interstitial collagenase, the Ki is above 200 µM.
On the same count and under the same terms, to `CNC(=O)[C@H](CO)NC(=O)Nc1n[nH]c(=S)s1` belongs above 200 µM; to `COc1ccc(N2CCN(C(=O)[C@H](Cc3ccccc3)NC(=O)Nc3nnc(S)s3)CC2)cc1`, 6 µM.
The same measure, in the same setting: to `COc1ccc(CNC(=O)[C@H](Cc2ccccc2)NC(=O)Nc2nnc(S)s2)cc1OC` belongs 6.2 µM.
In turn, `O=C(Nc1nnc(S)s1)N[C@@H](Cc1ccccc1)C(=O)N1CCSCC1` had a Ki on Interstitial collagenase of 12 µM.
On Stromelysin-1, `Sc1nnc(NCc2ccccc2)s1` came in with an IC50 of 97 µM.
`O=C(Nc1nnc(S)s1)N[C@@H](Cc1ccccc1)C(=O)O`: the Ki at Interstitial collagenase was above 200 µM.
Regarding `O=C(Nc1nnc(S)s1)N[C@@H](Cc1ccccc1)C(=O)N1CCCC1`, the Ki at Interstitial collagenase is 20 µM.
As to `O=C(NCc1ccccc1)Nc1nncs1`, on Stromelysin-1, the IC50 is above 2000 µM.
Same read-out and setting: as for `O=C(NCc1cccc2ccccc12)Nc1nnc(S)s1`, the figure is 23 µM; as for `Sc1nnc(Nc2ccccc2)s1`, 190 µM; as for `O=C(Nc1ccc(F)cc1)Nc1nnc(S)s1`, 29 µM.
On to `Sc1nnc(NCCCCc2ccccc2)s1`, for which the IC50 against Stromelysin-1 came to 318 µM.
`CNC(=O)[C@H](Cc1c(F)c(F)c(F)c(F)c1F)NC(=O)Nc1nnc(S)s1` gave a Ki at Interstitial collagenase of 3 µM.
Consider `Sc1nnc(NCCc2ccccc2)s1`, for which the IC50 on Stromelysin-1 is 47 µM.
On Interstitial collagenase, `O=C(Nc1nnc(S)s1)N[C@@H](Cc1ccccc1)C(=O)N1CCN(Cc2ccccc2)CC1` registered a Ki of 29 µM.
`O=C(Nc1nnc(S)s1)N[C@@H](Cc1ccccc1)C(=O)N1CCN(c2ccccn2)CC1` gave a Ki on Interstitial collagenase of 1.5 µM.
The same measure, in the same setting: as for `CNC(=O)[C@H](Cc1ccc(O)cc1)NC(=O)Nc1nnc(S)s1`, the figure is 21 µM; as for `O=C(Nc1nnc(S)s1)N[C@@H](Cc1ccccc1)C(=O)NCC1CCCCC1`, above 200 µM.
The same measure, in the same setting: to `CNC(=O)[C@H](Cc1ccc(OC)cc1)NC(=O)Nc1nnc(S)s1` belongs 16 µM.
Consider `CCN(C(=O)NCCc1ccccc1)c1nnc(S)s1`, for which the IC50 against Stromelysin-1 is above 1000 µM.
As for `Cn1nc(NC(=O)NCCc2ccccc2)sc1=S`, the IC50 on Stromelysin-1 is 694 µM.
Turning to `Sc1nnc(NCc2ccco2)s1`, at Stromelysin-1, the IC50 amounted to 289 µM.
As to `O=C(Nc1nnc(S)s1)N[C@@H](Cc1ccc(F)cc1)C(=O)N1CCN(c2ccccn2)CC1`, the Ki at Interstitial collagenase is 1.8 µM.
Regarding `O=C(Nc1nnc(S)s1)N[C@@H](Cc1c(F)c(F)c(F)c(F)c1F)C(=O)N1CCN(c2ccccn2)CC1`, at Interstitial collagenase, the Ki stood at 0.77 µM.
With `CCNc1nnc(S)s1`, the IC50 against Stromelysin-1 was above 2000 µM.
`O=C(NCCCCc1ccccc1)Nc1nnc(S)s1` yielded a half-inhibitory concentration (IC50) against Stromelysin-1 of 34 µM.
Take `COC(=O)[C@H](Cc1ccccc1)NC(=O)Nc1nnc(S)s1`: the Ki on Interstitial collagenase worked out at 17 µM.
Molecule `NC(=O)[C@H](Cc1ccccc1)NC(=O)Nc1nnc(S)s1` registered a Ki on Interstitial collagenase above 200 µM.
The same measure, in the same setting: to `O=C(Nc1nnc(S)s1)N[C@@H](Cc1ccccc1)C(=O)N1CCN(c2ncccn2)CC1` belongs 16 µM.
In the case of `Cc1cccc(Cl)c1Nc1nnc(S)s1`, the IC50 against Stromelysin-1 amounted to 173 µM.
As to `O=C(Nc1nnc(S)s1)N[C@@H](Cc1ccccc1)C(=O)NCc1ccccc1`, the inhibitory constant (Ki) at Interstitial collagenase was determined as 15 µM.
For `CNC(=O)[C@@H](Cc1ccccc1)NC(=O)Nc1n[nH]c(=S)s1`, the Ki at Interstitial collagenase is above 200 µM.
The molecule `CNC(=O)[C@H](CC1CCCCC1)NC(=O)Nc1n[nH]c(=S)s1` showed a Ki on Interstitial collagenase of 67 µM.
Take `CNC(=O)[C@@H](NC(=O)Nc1n[nH]c(=S)s1)c1ccccc1`: the Ki at Interstitial collagenase stood at 41 µM.
Turning to `CNC(=O)CNC(=O)Nc1n[nH]c(=S)s1`, the Ki on Interstitial collagenase is above 100 µM.
Take `CN(C)C(=O)[C@H](Cc1ccccc1)NC(=O)Nc1nnc(S)s1`: the Ki on Interstitial collagenase stood at 226 µM.
Still for that read-out and setting: to `CNC(=O)[C@H](COCc1ccccc1)NC(=O)Nc1nnc(S)s1` belongs 52 µM.
Molecule `CNC(=O)[C@H](Cc1ccc(F)cc1)NC(=O)Nc1nnc(S)s1` displayed an inhibition constant Ki on Interstitial collagenase of 8.9 µM.
Same read-out and setting: to `O=C(Nc1nnc(S)s1)N[C@@H](Cc1ccccc1)C(=O)N1CCOCC1` belongs 32 µM.
On to `O=C(Nc1ccccc1)Nc1nnc(S)s1`, for which the IC50 at Stromelysin-1 was 99 µM.
For the molecule `CNC(=O)[C@H](Cc1ccc([N+](=O)[O-])cc1)NC(=O)Nc1nnc(S)s1`, at Interstitial collagenase, the Ki is 15 µM.
`CCCCCCCCCCCCNc1nnc(S)s1` returned an IC50 at Stromelysin-1 of 97 µM.
